Results reported in patent EP0237866A1, “Selective fungicidal use of asymmetric 2-pyridyl phosphoric acid esters” (priority 1986, dated 1987).

Assays:
Cutinase = molecular target: T1, Cutinase (Fusarium vanettenii, UniProt P00590); test: Cutinase inhibitor test; assay type: biochemical, Fusarium solani f.sp.pisi; settings: p-Nitrophenylbutyrat as substrate, 30 min incubation at 30°C, phosphate buffer 0,1 M pH 8 + 0,3% Triton X-100; read-out: I50
T1 construct: Das Enzym Cutinase wird aus Kulturfiltrat von Fusarium solani f.sp.pisi nach Standardmethoden gereinigt; endogenous in cells; host or cells: Culture filtrate of Fusarium solani f.sp. pisi (enzyme secreted by the fungus and purified)
Procedure: Das Enzym Cutinase wird aus Kulturfiltrat von Fusarium solani f.sp.pisi nach Standardmethoden gereinigt und photometrisch mit p-Nitrophenylbutyrat als Substrat getestet (P.E. Kolattukudy, K.E. Espelie, C.L. Soliday (1981), Meth. Enzymol. 71, 652).
Die Inhibitor-Wirkung wird einer beschriebenen Methode folgend bestimmt (W. Köller, C.R. Allan, P.E. Kolattukudy (1982), Phytopathoiopy 72, 1425): Eine geeignete Menge Enzym wird zusammen mit dem Wirkstoff in gewünschter Konzentration in 1 ml Phosphatpuffer (0,1 M; pH 8) + 0,3% (w/v) Triton X-100 bei 30°C inkubiert. Nach 30 Minuten Inkubation wird die enzymatische Restaktivität bestimmt. Anhand einer Dosis-Wirkungs-Beziehung wird der I(50)-Wert (= diejenige Wirkstoff-Konzentration, die zu einer Inhibierung von 50 % führt) ermittelt.

[1] = system: Erysiphe graminis f.sp.hordei; test: Erysiphe test (barley) / protective; assay type: in vivo; settings: evaluated 7 days after inoculation
Description: Erysiphe-Test (Gerste) / protektiv
Lösungsmittel: 100 Gewichtsteile Dimethylformamid Emulgator: 0,25 Gewichtsteile Alkylarylpolyglykolether
(§1) Zur Herstellung einer zweckmäßigen Wirkstoffzubereitung vermischt man 1 Gewichtsteil Wirkstoff mit den angegebenen Mengen Lösungsmittel und Emulgator und verdünnt das Konzentrat mit Wasser auf die gewünschte Konzentration.
Zur Prüfung auf protektive Wirksamkeit besprüht man junge Pflanzen mit der Wirkstoffzubereitung taufeucht. Nach Antrocknen des Spritzbelages werden die Pflanzen mit Sporen von Erysiphe graminis f.sp.hordei bestäubt.
Die Pflanzen werden in einem Gewächshaus bei einer Temperatur von ca. 20°C und einer relativen Luftfeuchtigkeit von ca. 80 % aufgestellt, um die Entwicklung von Mehltaupusteln zu begünstigen.
7 Tage nach der Inokulation erfolgt die Auswertung.

Venturia inaequalis = test: Venturia test (apple) / protective; assay type: in vivo; settings: apple plants, protective spray, 5 ppm active compound, evaluated 12 days after inoculation
Description: Venturia-Test (Apfel) / protektiv
Lösungsmittel: 4,7 Gewichtsteile Aceton Emulgator: 0,3 Gewichtsteile Alkylarylpolyglykolether
as §1
Zur Prüfung auf protektive Wirksamkeit bespritzt man junge Pflanzen mit der Wirkstoffzubereitung bis zur Tropfnässe. Nach Antrocknen des Spritzbelages werden die Pflanzen mit einer wäßrigen Konidiensuspension des Apfelschorferregers (Venturia inaequalis) inokuliert und verbleiben dann 1 Tag bei 20°C und 100 X relativer Luftfeuchtigkeit in einer Inkubationskabine.
Die Pflanzen werden dann im Gewächshaus bei 20 °C und einer relativen Luftfeuchtigkeit von ca. 70 % aufgestellt.
12 Tage nach der Inokulation erfolgt die Auswertung.

[2] = protective spray, 0,0025 Gew.-% in the spray liquor

T1 sequence (P00590 32-230): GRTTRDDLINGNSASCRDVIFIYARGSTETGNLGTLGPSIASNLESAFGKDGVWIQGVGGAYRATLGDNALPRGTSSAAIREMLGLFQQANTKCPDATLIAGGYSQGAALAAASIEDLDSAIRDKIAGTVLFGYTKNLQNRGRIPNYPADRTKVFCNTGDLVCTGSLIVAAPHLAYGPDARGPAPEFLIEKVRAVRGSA

Structure (SMILES)	Krankheits-befall in % der unbe-handelten Kontrolle [1, 2]	Befall in % bei einer Wirkstoffkonzentration von 5 ppm (Venturia inaequalis)	further results
CCCOP(=O)(OC)Oc1nc(Cl)c(Cl)cc1Cl (centres unmarked) [Beispiel 12]	–	–	IC50 (Cutinase): 39 nM
CCCCOP(=O)(OC)Oc1cccc(Cl)n1 (centres unmarked) [Beispiel 8]	37,5 % der unbe-handelten Kontrolle	–	–
CCCCCCOP(=O)(OC)Oc1cccc(Cl)n1 (centres unmarked) [Beispiel 7]	37,5 % der unbe-handelten Kontrolle	–	–
CCOP(=O)(OCC)Oc1nc(Cl)c(Cl)cc1Cl [A, 0,0-Diethyl-0-(3,5,6-trichlor-2-pyridyl)-phosphorsäureester, reference compound]	–	74%	Krankheits-befall in % der unbe-handelten Kontrolle ([1]; protective spray, 0,005 Gew.-% in the spray liquor): 58,7 % der unbe-handelten Kontrolle; IC50 (Cutinase): 190 nM
CCCCOP(=O)(OC)Oc1ncc(Cl)cc1Cl (centres unmarked) [Beispiel 10]	12,5 % der unbe-handelten Kontrolle	–	–
CCCCCCOP(=O)(OC)Oc1nc(Cl)c(Cl)cc1Cl (centres unmarked) [Beispiel 5]	–	3%	–
CCCCCCCCOP(=O)(OCC)Oc1nc(Cl)c(Cl)cc1Cl (centres unmarked) [Beispiel 3]	–	19%	–
CCCCOP(=O)(OC)Oc1nc(Cl)c(Cl)cc1Cl (centres unmarked) [Beispiel 4]	–	5%	IC50 (Cutinase): 36 nM
CCCCOP(=O)(OCC)Oc1nc(Cl)c(Cl)cc1Cl (centres unmarked) [Beispiel 1, O-n-Butyl-O-ethyl-O-(3,5,6-trichlor-2-pyridyl)-phosphorsiureester]	–	27%	–
CCCCCCOP(=O)(OC)Oc1ncc(Cl)cc1Cl (centres unmarked) [Beispiel 9]	25,0 % der unbe-handelten Kontrolle	–	–
CCCCCCOP(=O)(OCC)Oc1nc(Cl)c(Cl)cc1Cl (centres unmarked) [Beispiel 2]	–	11%	–
